These are literature values, as cited in PMC3124134 (Bioorganic & medicinal chemistry, 2010).

pKi: −log10 of the molar value.

One series deals with Sc ODCase. The note with it: S. cerevisiae ODCase; in words.
Another series concerns the target ODCase. Conditions: read-out: inhibition constant (Ki); competitive inhibition of ODCase.

Consider `NC(=O)c1[nH]nc([C@@H]2O[C@H](COP(=O)(O)O)[C@@H](O)[C@H]2O)c1O` [compound 8, 4-Hydroxy-5-(5-O-monophosphoryl-β-D-ribofuranos-1-yl)-1H-pyrazole-3-carboxamide], for which, at Sc ODCase, the inhibition constants result is reported as “low nanomolar range”.
As for `COC(=O)C1=C(C)NC(C)=C(C(=O)OC)C1c1ccccc1[N+](=O)[O-]` [nifedipine], on ODCase, the pKi – broadly, −log10 of the Ki, conventionally taken in molar units – is 3.98.
